Measured values as given in publication PMC5656653, “Evaluation of Ga-DOTA-(D-Asp)n as bone imaging agents: D-aspartic acid peptides as carriers to bone” (Scientific Reports, 2017).
Read-outs that look alike come from different tables or passages of the source. Where a SMILES comes first, the peptide text is derived from it. [ ]: non-standard residue; d: D form. The star is where a group is joined. DOTA = O=C(O)CN1CCN(CC(=O)O)CCN(CC(=O)*)CCN(CC(=O)O)CC1

Assay: Biodistribution experiments in normal mice after i.v. injection
Format: in vivo
Conditions: for tissue uptake dose at 10 min / tissue uptake dose at 1 h / tissue uptake dose at 3 h: male, ddY, total radioactivity
Method: Experiments with animals were conducted in strict accordance with the Guidelines for the Care and Use of Laboratory Animals of Kanazawa University. The animal experimental protocols used were approved by the Committee on Animal Experimentation of Kanazawa University (Permit Number: AP-132633). Biodistribution experiments were performed after intravenous administration of each diluted tracer solution (37–740 kBq/100 μL) to 6-week-old male ddY mice (27–32 g, Japan SLC, Inc., Hamamatsu, Japan). Four or five mice at each time point after the administration of each compound were sacrificed by decapitation at 10, 60, and 180 min post-injection. Tissues of interest were taken and weighed. Complete left femurs were isolated as representative bone samples, radioactivity was determined using gamma counters (AccuFLEX γ ARC-8001 in the case of ^18F, Hitachi, Ltd.), and background counts and physical decay were corrected during counting.

[1] = mouse, in vivo, iv, Biodistribution of radioactivity, Blood
[2] = mouse, in vivo, iv, Biodistribution of radioactivity, Bone (Femur)
[3] = mouse, in vivo, iv, Biodistribution of radioactivity, Brain
[4] = mouse, in vivo, iv, Biodistribution of radioactivity, Heart
[5] = mouse, in vivo, iv, Biodistribution of radioactivity, Kidney
[6] = mouse, in vivo, iv, Biodistribution of radioactivity, Large-intestine
[7] = mouse, in vivo, iv, Biodistribution of radioactivity, Liver
[8] = mouse, in vivo, iv, Biodistribution of radioactivity, Lung
[9] = mouse, in vivo, iv, Biodistribution of radioactivity, Muscle
[10] = mouse, in vivo, iv, Biodistribution of radioactivity, Pancreas
[11] = mouse, in vivo, iv, Biodistribution of radioactivity, Small-intestine
[12] = mouse, in vivo, iv, Biodistribution of radioactivity, Spleen
[13] = mouse, in vivo, iv, Biodistribution of radioactivity, Stomach

With `O=C(O)C[C@@H](NC(=O)[C@@H](CC(=O)O)NC(=O)[C@@H](CC(=O)O)NC(=O)[C@@H](CC(=O)O)NC(=O)[C@@H](CC(=O)O)NC(=O)[C@@H](CC(=O)O)NC(=O)[C@@H](CC(=O)O)NC(=O)[C@@H](CC(=O)O)NC(=O)[C@@H](CC(=O)O)NC(=O)[C@@H](CC(=O)O)NC(=O)[C@@H](CC(=O)O)NC(=O)CN1CCN(CC(=O)O)CCN(CC(=O)O)CCN(CC(=O)O)CC1)C(=O)O` [^67Ga-DOTA-(D-Asp)11, metal not drawn] ({DOTA}-[dD][dD][dD][dD][dD][dD][dD][dD][dD][dD][dD]-OH) the tissue uptake dose at 10 min (mouse, in vivo, iv, mice, i.v., 10 min after injection, mean (SD), footnote b, read-out: Biodistribution of radioactivity, Stomach) was 0.18 %ID, the tissue uptake dose at 10 min (mouse, in vivo, iv, mice, i.v., 10 min after injection, mean (SD), read-out: Biodistribution of radioactivity, Blood) was 1.71 %ID and the tissue uptake dose at 10 min (mouse, in vivo, iv, mice, i.v., 10 min after injection, mean (SD), read-out: Biodistribution of radioactivity, Bone (Femur)) was 11.9 %ID. The tissue uptake dose at 10 min (mouse, in vivo, iv, mice, i.v., 10 min after injection, mean (SD), read-out: Biodistribution of radioactivity, Brain) was 0.05 %ID, the tissue uptake dose at 10 min (mouse, in vivo, iv, mice, i.v., 10 min after injection, mean (SD), read-out: Biodistribution of radioactivity, Heart) was 0.65 %ID and the tissue uptake dose at 10 min (mouse, in vivo, iv, mice, i.v., 10 min after injection, mean (SD), read-out: Biodistribution of radioactivity, Kidney) was 12.8 %ID. It also gave a tissue uptake dose at 10 min (mouse, in vivo, iv, mice, i.v., 10 min after injection, mean (SD), read-out: Biodistribution of radioactivity, Large-intestine) of 0.28 %ID, a tissue uptake dose at 10 min (mouse, in vivo, iv, mice, i.v., 10 min after injection, mean (SD), read-out: Biodistribution of radioactivity, Liver) of 0.51 %ID and a tissue uptake dose at 10 min (mouse, in vivo, iv, mice, i.v., 10 min after injection, mean (SD), read-out: Biodistribution of radioactivity, Lung) of 1.24 %ID. For the same compound, the tissue uptake dose at 10 min (mouse, in vivo, iv, mice, i.v., 10 min after injection, mean (SD), read-out: Biodistribution of radioactivity, Muscle) was 0.58 %ID, the tissue uptake dose at 10 min (mouse, in vivo, iv, mice, i.v., 10 min after injection, mean (SD), read-out: Biodistribution of radioactivity, Pancreas) was 0.53 %ID and the tissue uptake dose at 10 min (mouse, in vivo, iv, mice, i.v., 10 min after injection, mean (SD), read-out: Biodistribution of radioactivity, Small-intestine) was 0.38 %ID. The tissue uptake dose at 10 min (mouse, in vivo, iv, mice, i.v., 10 min after injection, mean (SD), read-out: Biodistribution of radioactivity, Spleen) was 0.44 %ID, the tissue uptake dose at 1 h (mouse, in vivo, iv, mice, i.v., 60 min after injection, mean (SD), footnote b, read-out: Biodistribution of radioactivity, Stomach) was 0.04 %ID and the tissue uptake dose at 1 h (mouse, in vivo, iv, mice, i.v., 60 min after injection, mean (SD), read-out: Biodistribution of radioactivity, Blood) was 0.14 %ID. The tissue uptake dose at 1 h (mouse, in vivo, iv, mice, i.v., 60 min after injection, mean (SD), read-out: Biodistribution of radioactivity, Bone (Femur)) was 15.3 %ID, the tissue uptake dose at 1 h (mouse, in vivo, iv, mice, i.v., 60 min after injection, mean (SD), read-out: Biodistribution of radioactivity, Brain) was 0.01 %ID and the tissue uptake dose at 1 h (mouse, in vivo, iv, mice, i.v., 60 min after injection, mean (SD), read-out: Biodistribution of radioactivity, Heart) was 0.04 %ID. The tissue uptake dose at 1 h (mouse, in vivo, iv, mice, i.v., 60 min after injection, mean (SD), read-out: Biodistribution of radioactivity, Kidney) was 2.92 %ID, the tissue uptake dose at 1 h (mouse, in vivo, iv, mice, i.v., 60 min after injection, mean (SD), read-out: Biodistribution of radioactivity, Large-intestine) was 0.03 %ID and the tissue uptake dose at 1 h (mouse, in vivo, iv, mice, i.v., 60 min after injection, mean (SD), read-out: Biodistribution of radioactivity, Liver) was 0.2 %ID. For the same compound, the tissue uptake dose at 1 h (mouse, in vivo, iv, mice, i.v., 60 min after injection, mean (SD), read-out: Biodistribution of radioactivity, Lung) was 0.08 %ID, the tissue uptake dose at 1 h (mouse, in vivo, iv, mice, i.v., 60 min after injection, mean (SD), read-out: Biodistribution of radioactivity, Muscle) was 0.18 %ID and the tissue uptake dose at 1 h (mouse, in vivo, iv, mice, i.v., 60 min after injection, mean (SD), read-out: Biodistribution of radioactivity, Pancreas) was 0.09 %ID. The tissue uptake dose at 1 h (mouse, in vivo, iv, mice, i.v., 60 min after injection, mean (SD), read-out: Biodistribution of radioactivity, Small-intestine) was 0.07 %ID, the tissue uptake dose at 1 h (mouse, in vivo, iv, mice, i.v., 60 min after injection, mean (SD), read-out: Biodistribution of radioactivity, Spleen) was 0.13 %ID and the tissue uptake dose at 3 h (mouse, in vivo, iv, mice, i.v., 180 min after injection, mean (SD), footnote b, read-out: Biodistribution of radioactivity, Stomach) was 0.02 %ID. For the same compound, the tissue uptake dose at 3 h (mouse, in vivo, iv, mice, i.v., 180 min after injection, mean (SD), read-out: Biodistribution of radioactivity, Blood) was 0.08 %ID, the tissue uptake dose at 3 h (mouse, in vivo, iv, mice, i.v., 180 min after injection, mean (SD), read-out: Biodistribution of radioactivity, Bone (Femur)) was 15.4 %ID and the tissue uptake dose at 3 h (mouse, in vivo, iv, mice, i.v., 180 min after injection, mean (SD), read-out: Biodistribution of radioactivity, Brain) was 0.02 %ID. It also gave a tissue uptake dose at 3 h (mouse, in vivo, iv, mice, i.v., 180 min after injection, mean (SD), read-out: Biodistribution of radioactivity, Heart) of 0.03 %ID, a tissue uptake dose at 3 h (mouse, in vivo, iv, mice, i.v., 180 min after injection, mean (SD), read-out: Biodistribution of radioactivity, Kidney) of 1 %ID and a tissue uptake dose at 3 h (mouse, in vivo, iv, mice, i.v., 180 min after injection, mean (SD), read-out: Biodistribution of radioactivity, Large-intestine) of 0.11 %ID. The tissue uptake dose at 3 h (mouse, in vivo, iv, mice, i.v., 180 min after injection, mean (SD), read-out: Biodistribution of radioactivity, Liver) was 0.13 %ID, the tissue uptake dose at 3 h (mouse, in vivo, iv, mice, i.v., 180 min after injection, mean (SD), read-out: Biodistribution of radioactivity, Lung) was 0.05 %ID and the tissue uptake dose at 3 h (mouse, in vivo, iv, mice, i.v., 180 min after injection, mean (SD), read-out: Biodistribution of radioactivity, Muscle) was 0.06 %ID. The tissue uptake dose at 3 h (mouse, in vivo, iv, mice, i.v., 180 min after injection, mean (SD), read-out: Biodistribution of radioactivity, Pancreas) was 0.04 %ID, the tissue uptake dose at 3 h (mouse, in vivo, iv, mice, i.v., 180 min after injection, mean (SD), read-out: Biodistribution of radioactivity, Small-intestine) was 0.05 %ID and the tissue uptake dose at 3 h (mouse, in vivo, iv, mice, i.v., 180 min after injection, mean (SD), read-out: Biodistribution of radioactivity, Spleen) was 0.1 %ID. For the same compound, the “F/B ratio (Femur:blood ratio)” value (mice, i.v., 10 min after injection, mean (SD)) was 7.01 (0.56), the “F/B ratio (Femur:blood ratio)” value (mice, i.v., 60 min after injection, mean (SD)) was 147.10 (71.25) and the “F/B ratio (Femur:blood ratio)” value (mice, i.v., 180 min after injection, mean (SD)) was 248.95 (170.64). For the same compound, the “Accumulation of radioactivity in bone (in words)” value (normal mice, i.v.) was “high accumulation and retention of radioactivity in bone”.

In the case of `O=C(O)CC[C@@H](NC(=O)[C@@H](CCC(=O)O)NC(=O)[C@@H](CCC(=O)O)NC(=O)[C@@H](CCC(=O)O)NC(=O)[C@@H](CCC(=O)O)NC(=O)[C@@H](CCC(=O)O)NC(=O)[C@@H](CCC(=O)O)NC(=O)[C@@H](CCC(=O)O)NC(=O)[C@@H](CCC(=O)O)NC(=O)[C@@H](CCC(=O)O)NC(=O)[C@@H](CCC(=O)O)NC(=O)[C@@H](CCC(=O)O)NC(=O)[C@@H](CCC(=O)O)NC(=O)[C@@H](CCC(=O)O)NC(=O)CN1CCN(CC(=O)O)CCN(CC(=O)O)CCN(CC(=O)O)CC1)C(=O)O` [^67Ga-DOTA-(D-Glu)14, metal not drawn], the tissue uptake dose at 10 min [1] is reported as 2.09 %ID, the tissue uptake dose at 1 h [1] is reported as 0.1 %ID and the tissue uptake dose at 3 h [1] is reported as 0.01 %ID. The tissue uptake dose at 10 min [2] was 11 %ID, the tissue uptake dose at 1 h [2] was 11.8 %ID and the tissue uptake dose at 3 h [2] was 12.2 %ID. For the same compound, the tissue uptake dose at 10 min [3] was 0.05 %ID, the tissue uptake dose at 1 h [3] was 0.01 %ID and the tissue uptake dose at 3 h [3] was 0.01 %ID. It also gave a tissue uptake dose at 10 min [4] of 0.79 %ID, a tissue uptake dose at 1 h [4] of 0.08 %ID and a tissue uptake dose at 3 h [4] of 0.05 %ID. The tissue uptake dose at 10 min [5] was 13.4 %ID, the tissue uptake dose at 1 h [5] was 10.6 %ID and the tissue uptake dose at 3 h [5] was 6.59 %ID. The tissue uptake dose at 10 min [6] was 0.42 %ID, the tissue uptake dose at 1 h [6] was 0.18 %ID and the tissue uptake dose at 3 h [6] was 0.25 %ID. The tissue uptake dose at 10 min [7] was 0.46 %ID, the tissue uptake dose at 1 h [7] was 0.12 %ID and the tissue uptake dose at 3 h [7] was 0.08 %ID. The tissue uptake dose at 10 min [8] was 1.65 %ID, the tissue uptake dose at 1 h [8] was 0.13 %ID and the tissue uptake dose at 3 h [8] was 0.04 %ID. It also gave a tissue uptake dose at 10 min [9] of 0.78 %ID, a tissue uptake dose at 1 h [9] of 0.19 %ID and a tissue uptake dose at 3 h [9] of 0.02 %ID. The tissue uptake dose at 10 min [10] was 0.68 %ID, the tissue uptake dose at 1 h [10] was 0.13 %ID and the tissue uptake dose at 3 h [10] was 0.06 %ID. For the same compound, the tissue uptake dose at 10 min [11] was 0.37 %ID, the tissue uptake dose at 1 h [11] was 0.22 %ID and the tissue uptake dose at 3 h [11] was 0.15 %ID. It also gave a tissue uptake dose at 10 min [12] of 0.37 %ID, a tissue uptake dose at 1 h [12] of 0.06 %ID and a tissue uptake dose at 3 h [12] of 0.03 %ID. For the same compound, the tissue uptake dose at 10 min [13] was 0.29 %ID, the tissue uptake dose at 1 h [13] was 0.19 %ID and the tissue uptake dose at 3 h [13] was 0.29 %ID. The “Accumulation of radioactivity in bone (in words)” value (mouse, in vivo, iv) was “high accumulation and retention of radioactivity in bone”, the “Clearance from the blood (in words)” value (mouse, in vivo, iv) was “rapid clearance from the blood” and the “Radioactivity in the kidneys (in words)” value (mouse, in vivo, iv) was “retained”.
